We go through five molecules from patent US11066455B2, “Tmem100 peptides and variants thereof and their use in treating or preventing diseases or conditions” (The Johns Hopkins University, priority 2014, dated 2021).

Entries after “also recorded” stand apart in the source; their conditions may differ. * marks the point of attachment. Palmitoyl = CCCCCCCCCCCCCCCC(=O)*

B2: TRPV1 (endogenous, mouse DRG) (receptor, UniProt Q704Y3 1-839, looked up)
chain: MEKWASLDSDESEPPAQENSCPDPPDRDPNSKPPPAKPHIFATRSRTRLFGKGDSEEASPMDCPYEEGGLASCPIITVSSVVTLQRSVDGPTCLRQTSQDSVSTGVETPPRLYDRRSIFDAVAQSNCQELESLLSFLQKSKKRLTDSEFKDPETGKTCLLKAMLNLHNGQNDTIALLLDIARKTDSLKQFVNASYTDSYYKGQTALHIAIERRNMALVTLLVENGADVQAAANGDFFKKTKGRPGFYFGELPLSLAACTNQLAIVKFLLQNSWQPADISARDSVGNTVLHALVEVADNTADNTKFVTNMYNEILILGAKLHPTLKLEELTNKKGLTPLALAASSGKIGVLAYILQREIHEPECRHLSRKFTEWAYGPVHSSLYDLSCIDTCEKNSVLEVIAYSSSETPNRHDMLLVEPLNRLLQDKWDRFVKRIFYFNFFVYCLYMIIFTTAAYYRPVEGLPPYKLNNTVGDYFRVTGEILSVSGGVYFFFRGIQYFLQRRPSLKSLFVDSYSEILFFVQSLFMLVSVVLYFSHRKEYVASMVFSLAMGWTNMLYYTRGFQQMGIYAVMIEKMILRDLCRFMFVYLVFLFGFSTAVVTLIEDGKNNSLPVESPPHKCRGSACRPGNSYNSLYSTCLELFKFTIGMGDLEFTENYDFKAVFIILLLAYVILTYILLLNMLIALMGETVNKIAQESKNIWKLQRAITILDTEKSFLKCMRKAFRSGKLLQVGFTPDGKDDFRWCFRVDEVNWTTWNTNVGIINEDPGNCEGVKRTLSFSLRSGRVSGRNWKNFALVPLLRDASTRDRHSTQPEEVQLKHYTGSLKPEDAEVFKDSMAPGEK
notes: whole, on cells

Assay [1] concerns paclitaxel (Taxol)-induced mechanical hyperalgesia in wild-type mice. Briefly: Paclitaxel-induced mechanical hyperalgesia. It counts as in vivo, mouse. The note with it: F2 5 μl 100 μM intradermal injection. The method, then: Mice were placed in a transparent plastic box (4.5×5×10 cm) on a metal mesh and acclimatized for 30 minutes prior to testing. Each mouse was tested more than 5 times at a specific force manually, and the threshold was determined by the lowest force needed to elicit responses more than 50% of the time.
Mice were injected with paclitaxel (Sigma T7191) intraperitoneally at the dose of 6 mg/kg, as previously described (Materazzi et al., 2012). Seven days after paclitaxel injection, the mice were assayed with Von Frey methods for mechanical hyperalgesia, both before and four hours after injection of cell permeable peptides.

Assay [2] concerns SNL-induced mechanical hyperalgesia in wild-type mice. Briefly: Spinal nerve ligation (SNL) in wild-type mice, mechanical hyperalgesia. It counts as in vivo, mouse. The note with it: day 6 post ligation, 4 hrs post CPP; 5 μl of 2 mM intradermal in hindpaws. The method, then:
In the wild-type mice with spinal nerve ligation (SNL), mechanical hyperalgesia is observed 6 days post ligation. Palmitoylated (Pal) CPP tailored to the C-terminus of human Tmem100-3Q alleviates neuropathic pain/mechanical allodynia in SNL. n=6, *p<0.05 at Day 6 4 hrs post CPP treatment. Scrambled: open bar; human P2-Mut (T100-Mut): black bar (FIG. 17). Peptides (5 μl of 2 mM) were injected intradermally in the hindpaws. Sequences for CPP used in the SNL experiment:
Human P2-Mut (T100-Mut) Pal-[…]-OH (SEQ ID NO: 7); Scrambled Pal-[…]-OH (SEQ ID NO: 19). Pal-palmitoylated in the N termini for each CPP.

In the next assay the test system is T1, TRPA1.
T1 construct: percentage of cells responsive to CA; other: shortened CPP 2 μM; CA 10 μM; HEK293 TRPA1+TRPV1; vs scrambled; percentage of cells responsive to MO; other: peptide 200 nM pre-treatment; 500 nM MO; HEK293T TRPA1+TRPV1; percentage of cells that respond to 100 nM MO and 10 μM CA; other: HEK293T TRPA1+TRPV1, Tmem100-3Q-transfected vs lacki; reduction in the percentage of cells responding to MO
Put plainly: Calcium imaging of HEK293T cells expressing TRPA1 and TRPV1 (MO or CA). It is filed as cell-based. The settings on record: shortened CPP 2 μM; CA 10 μM; HEK293 TRPA1+TRPV1; vs scrambled.

Assay [3] concerns neuropathic mechanical hypersensitivity in SNL rats. It is filed as in vivo, rat. The settings on record: intrathecal 10 μl. From the text:
An modified L5 SNL model was produced as described in previously (He et al., 2014; Shechter et al., 2013). Male Sprague-Dawley rats (200-350 g, Harlan, Indianapolis, Ind.) were anesthetized with 2% isoflurane. The left L5 spinal nerve was ligated with a 6-0 silk suture and cut distally. The muscle layer was closed with 4-0 chromic gut suture and the skin closed with metal clips. For intrathecal catheter implantation, a small slit was cut in the atlanto-occipital membrane of rats, into which a saline-filled piece of PE-10 tubing (6-7 cm) was inserted (He et al., 2014). […] Hypersensitivity to punctuate mechanical stimulation was determined with the up-down method by using a series of von Frey filaments (0.38-15.1 g) applied for 4-6 seconds to the test area on the plantar surface of the hindpaw (Chaplan et al., 1994; He et al., 2014). The PWT was determined according to the formula provided by Dixon (Dixon, 1980). […] HC-030031 was purchased from Tocris Bioscience (Bristol, UK). Both drugs were dissolved in 10% dimethylsulfoxide (DMSO), 5% Tween 80 and 85% sterile saline solution. The final working solution which was injected by intrathecal route contained <1% DMSO. The number of animals used in each study was based on experience with similar studies and power analysis calculations. Animals were randomized to the different treatment groups and blinded the experimenter to drug treatment to reduce selection and observation bias. After the experiments were completed, no data point was excluded. STATISTICA 6.0 software (StatSoft, Inc., Tulsa, Okla.) was used to conduct all statistical analyses. The Tukey honestly significant difference (HSD) post-hoc test was used to compare specific data points. Bonferroni correction was applied for multiple comparisons. Two-tailed tests were performed, and data are expressed as mean±SEM; P<0.05 was considered significant in all tests.
The sequence from the last 28 amino acids of the C-terminus of the Tmem100-3Q mutant protein was synthesized and myristoylated at its N-terminus (myr-[…]-COOH) (SEQ ID NO: 8) by Twentyfirst Century Biochemicals. […] For the calcium imaging assay, the peptides were added to the calcium imaging buffer with a final concentration of 200 nM and incubated for at least […] at room temperature. For the mice behavioral assays, the peptides (5 μL, 2 mM) were injected subcutaneously in the hindpaw at least 30 minutes before testing. For the rat behavior assays, human T100-3Q (h-T100), a palmitoylated cell permeable peptide mutated based on the C terminus of human sequence in Tmem100, was applied. The sequence is Palmitoyl-[…]-COOH (SEQ ID NO: 7).

For assay [4], the system named is ongoing neuropathic pain in SNL rats. Put plainly: Conditioned place preference test for ongoing pain in SNL rats. It counts as in vivo, rat. The note with it: intrathecal 50 μM, 10 μl; for conditioned place preference: time in drug-paired chamber, SNL rats: scramble peptide-paired chamber as comparison. From the text:
Ongoing, or spontaneous, pain, which is most bothersome to patients, is difficult to treat and difficult to study in animals. The conditioned place preference test has been successfully developed to reveal the presence of non-evoked, ongoing pain and pain relief based on the preference of an animal for the context paired with a pain-relief treatment. The conditioned place preference can also capture the aversive aspects of pain. Strikingly, many studies have shown that the rodent conditioned place preference test accurately reflects the effectiveness of human clinical treatments. Therefore, this test is a powerful approach to investigate the potential effectiveness of new treatments and mechanisms for relief of ongoing pain. Two previous studies have examined the role of TRPA1 in ongoing pain by the conditioned place preference test. […] Because the antagonists used in those studies (HC030031 and Chem5861528) target TRPA1 monomers, it is possible that T100-Mut can inhibit ongoing pain by modulating the TRPA1/V1 complex. This possibility was tested in rodents with SNL-induced ongoing pain using the conditioned place preference test. […] Systemic administration of gabapentin, an analgesic that is known to alleviate neuropathic pain, was used as a positive control (FIG. 16B).

Assay [5] deals with TRPV1-CFP. Put plainly: FRET with TIRF microscopy, COS-7 cells, Tmem100-3Q co-expressed.
Assay [6] addresses TRPV1-CFP. Put plainly: FRET with TIRF microscopy, COS-7 cells, wild-type Tmem100 co-expressed.
The target of assay [7] is T2, TRPA1 (endogenous, mouse DRG) (mouse, UniProt Q8BLA8 1-1125).
T2 construct: whole, on cells
Put plainly: co-immunoprecipitation from mouse DRG lysates. The source says: (§1) All groups were transfected with TRPV1-CFP and TRPA1-YFP except for the Rho-pYC (as a positive control for maximal effects of the system) and M-V1 (negative control) groups, where Rho-pYC and membrane-tethered YFP+TRPV1-CFP, respectively, were transfected instead. FRET efficiencies were highest in Tmem100-3Q-transfected cells (A1-V1-3Q), followed by the empty vector-transfected groups (A1-V1), and were lowest in cells transfected with wild-type Tmem100 (A1-V1-WT). The statistic is one-way ANOVA (*$p<0.05$; $p<0.01$, *$p<0.001$). Data are presented as mean±SEM. FIG. 5F is a table showing a summary of the data from FIG. 5E.
(§2) DRG from all levels or CHO cells transfected with Trpv1, Trpa1, and Tmem100-myc were used. Whole cell DRG or CHO cells lysates were generated 24 h after transfection, and Co-IP with either 1 µg myc antibody (EMD Millipore) or 1 µg TRPV1 antibody (Santa Cruz, R130) as described (Akopian et al., 2007) Immunoprecipitants and cell lysate aliquots were resolved by SDS-PAGE and immunoblotted with 1:1000 anti-TRPV1 antibody (Santa Cruz, R130), 1:500 anti-Tmem100 antibody, 1:1000 anti-TRPA1 (Novus), or 1:1000 anti-myc (EMD Millipore). Secondary antibodies for visualization included donkey anti-rabbit and anti-mouse HRP-conjugated antibodies (GE Biosciences). […]

Assay [8] concerns the target B2. Briefly: co-immunoprecipitation from mouse DRG lysates.
Description: as §1, §2

In assay [9] the target is T2, TRPA1 (endogenous, mouse DRG). Briefly: co-IP with Tmem100 and TRPV1 antibodies, Western blot, mouse DRG lysates.
Description: as §1, §2

T2 sequence (Q8BLA8 whole entry): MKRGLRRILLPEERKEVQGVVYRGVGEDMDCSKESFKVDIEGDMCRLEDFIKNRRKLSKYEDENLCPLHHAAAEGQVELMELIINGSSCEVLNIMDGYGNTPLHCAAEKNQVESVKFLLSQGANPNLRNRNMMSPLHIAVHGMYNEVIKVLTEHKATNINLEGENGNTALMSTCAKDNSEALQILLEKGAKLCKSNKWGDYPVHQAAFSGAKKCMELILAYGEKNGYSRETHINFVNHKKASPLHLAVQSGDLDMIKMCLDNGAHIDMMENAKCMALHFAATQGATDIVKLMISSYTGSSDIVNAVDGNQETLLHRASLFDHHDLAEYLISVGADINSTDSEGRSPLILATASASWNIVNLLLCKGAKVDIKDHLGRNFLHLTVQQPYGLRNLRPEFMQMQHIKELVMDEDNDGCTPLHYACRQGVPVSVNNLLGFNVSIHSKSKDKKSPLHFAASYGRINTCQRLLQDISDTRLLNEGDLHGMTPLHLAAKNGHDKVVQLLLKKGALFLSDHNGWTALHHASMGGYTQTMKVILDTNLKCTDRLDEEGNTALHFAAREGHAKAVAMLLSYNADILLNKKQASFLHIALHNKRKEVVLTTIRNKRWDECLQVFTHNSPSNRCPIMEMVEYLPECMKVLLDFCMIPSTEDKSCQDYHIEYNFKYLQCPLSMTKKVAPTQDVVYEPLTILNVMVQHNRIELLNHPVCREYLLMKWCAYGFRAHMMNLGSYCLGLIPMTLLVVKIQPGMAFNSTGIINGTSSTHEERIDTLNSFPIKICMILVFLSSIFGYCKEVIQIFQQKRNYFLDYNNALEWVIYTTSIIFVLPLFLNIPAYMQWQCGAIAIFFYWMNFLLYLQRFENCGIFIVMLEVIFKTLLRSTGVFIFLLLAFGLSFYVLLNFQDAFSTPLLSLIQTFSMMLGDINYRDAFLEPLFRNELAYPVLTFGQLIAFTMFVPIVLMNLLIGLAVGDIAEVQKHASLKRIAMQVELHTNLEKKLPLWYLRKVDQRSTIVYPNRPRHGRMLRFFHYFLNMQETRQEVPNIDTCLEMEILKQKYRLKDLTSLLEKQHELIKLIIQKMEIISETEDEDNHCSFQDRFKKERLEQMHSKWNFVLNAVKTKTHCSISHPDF

Regarding “F2: shortened CPP consisting of the first 18 amino acids of the T100-Mut (SEQ ID NO: 17) (WKVRQRNKKVQQQESQTA; listed as Mus musculus)”, in assay [1], the paclitaxel-induced mechanical hyperalgesia result was “effective”. The “SNL-induced mechanical hyperalgesia / allodynia in mice” value in assay [2] is “blocked”. In the assay with TRPA1, the “percentage of cells responsive to CA” value was “significantly reduced; also recorded: same inhibitory effects”.
Turning to “Palmitoyl-WKVRQRSKKAQQQESQTALVANQRSLFA-COOH (Palmitoyl-WKVRQRSKKAQQQESQTALVANQRSLFA-OH; SMILES CCCCCCCCCCCCCCCC(=O)N[C@@H](Cc1c[nH]c2ccccc12)C(=O)N[C@@H](CCCCN)C(=O)N[C@H](C(=O)N[C@@H](CCCNC(=N)N)C(=O)N[C@@H](CCC(N)=O)C(=O)N[C@@H](CCCNC(=N)N)C(=O)N[C@@H](CO)C(=O)N[C@@H](CCCCN)C(=O)N[C@@H](CCCCN)C(=O)N[C@@H](C)C(=O)N[C@@H](CCC(N)=O)C(=O)N[C@@H](CCC(N)=O)C(=O)N[C@@H](CCC(N)=O)C(=O)N[C@@H](CCC(=O)O)C(=O)N[C@@H](CO)C(=O)N[C@@H](CCC(N)=O)C(=O)N[C@H](C(=O)N[C@@H](C)C(=O)N[C@@H](CC(C)C)C(=O)N[C@H](C(=O)N[C@@H](C)C(=O)N[C@@H](CC(N)=O)C(=O)N[C@@H](CCC(N)=O)C(=O)N[C@@H](CCCNC(=N)N)C(=O)N[C@@H](CO)C(=O)N[C@@H](CC(C)C)C(=O)N[C@@H](Cc1ccccc1)C(=O)N[C@@H](C)C(=O)O)C(C)C)[C@@H](C)O)C(C)C; listed as Homo sapiens) [h-T100]”, the “contralateral PWT after drug injection” value in assay [3] was “no significant change”. The “ipsilateral paw withdrawal threshold (PWT) vs pre-drug” value in assay [3] (h-T100 10-100 μM, HC-030031 10-200 μM, scrambled 100 μM) was “dose-dependently increased”. In addition, the results for the “conditioned place preference: time in drug-paired chamber, SNL rats” value in [4] (listed as P2-Mut) and in assay [4] (listed as human T100-Mut) were “increased” and “induced robust the conditioned place preference”, respectively. The “chamber preference in sham-operated rats” value in assay [4] (sham-operated) is reported as “did not induce chamber preference”. Moreover, the “SNL-induced mechanical hyperalgesia / allodynia in mice” value in assay [2] is “alleviates”.
The molecule TRPA1-YFP (receptor) yielded an increase of the TRPA1-TRPV1 interaction (FRET efficiency) against cells expressing only TRPA1-V1 in the assay with TRPV1-CFP [5] of 43%. This molecule also came in with a decrease of FRET efficiency against cells expressing only TRPA1-V1 with TRPV1-CFP [6] of 34%.

B1: Tmem100 (wild-type, full-length, mouse) (other)
chain: MTEESTKENLGAPKSPTPVTMEKNPKREVVVTTGPLVSEVQLMAATGGAELSCYRCIIPFAVVVFITGIVVTAVAYSFNSHGSIISIFGLVLLSSGLFLLASSALCWKVRQRNKKVKRRESQTALVVNQRCLFA
notes: also called Pirt2; T100
Regarding B1, the binding result in assay [7] and in assay [8] was “binds” in each case.
As for B2, the binding result in assay [9] is recorded as “binds”.
